“Also recorded” adds a separate entry of the source.
Assays:
[1] = Rubine dye uptake (substantivity) on human hair swatches/tresses; conditions: for Rubine dye uptake / uptake with respect to the positive control: 50% aqueous solution (panthenol) or 50% solids aqueous solution; for Rubine dye uptake: Demeo Natural White Hair, read at 520 nm; for uptake with respect to the positive control: relative to positive control; for greater uptake than the unquaternized panthenol: human hair swatches
Text: In the following Examples, the qualitative test for measuring the substantivity of the compounds on hair was the Rubine Dye Test using Pyrazol Fast Bordeaux, as described in U.S. Pat. No. 3,769,398 to Hewitt and Crawford et al. J. Soc. Cosmet. Chem. 31, 273-278 (1980), the entire disclosures of which are incorporated herein by reference. The intensity of the residual pink color, after rinsing, on a hair swatch previously treated with the compound, is an indication of the degree of deposition of the compound onto the hair. Absence of pink color points to a lack of substantivity.
In a one liter reaction flask, fitted with a stirrer, thermometer reflux condenser, heating mantle and a feed funnel, 205 grams of deionized water was charged. 205 grams (1 mole) of d,l-panthenol was charged in the water and stirred until dissolved. In a separate, stirred, one liter vessel, 376 grams (1 mole) of 50% aqueous QUAB 188 (3-Chloro-2-hydroxypropyl trimethylammonium chloride) was reacted with approximately 80 grams (1 mole) of 50% aqueous sodium hydroxide solution, to form a solution of QUAB 151 (2, 3-Epoxypropyl trimethyl ammonium chloride), to a pH of ^~ 9.5. The batch was heated to 50°-60° C., and the QUAB 151 solution was added to the panthenol solution through the feed funnel. The pH of the reaction mixture was checked, and adjusted to ^~ 9.5 with a small additional amount of 50% sodium hydroxide solution, as required. The batch was then agitated at 50°-60° C. for a four hour period to assure complete reaction. The pH of the batch was then adjusted to 6.5-8.0 with a small amount of lactic acid. The resultant product was a clear yellow solution, containing approximately 50% of trimethyl quaternized panthenol.
In a two liter reaction flask, fitted with a stirrer, thermometer, reflux condenser, heating mantle and a feed funnel, 205 grams of deionized water was charged. 205 grams (1 mole) of d,l- panthenol was charged into the water and stirred until dissolved. In a separate stirred one liter vessel, 852 grams (1 mole) of 50% aqueous QUAB 426 (3-Chloro-2-hydroxypropyl stearyl dimethylammonium chloride) was reacted with approximately 80 grams (1 mole) of 50% aqueous sodium hydroxide solution, to form a solution of QUAB 393 (2,3-Epoxypropyl stearyl dimethyl ammonium chloride), to a pH of ^~ 9.5. The batch was heated to 50°-60° C., and the QUAB 393 solution was added to the panthenol solution through the feed funnel. The pH of the reaction mixture was checked, and adjusted to ^~ 9.5 with a small additional amount of 50% sodium hydroxide solution, as required. The batch was then agitated at 50°-60° C. for a four hour period to assure complete reaction. The pH of the batch was then adjusted to 6.5-8.0 with a small amount of lactic acid. The resultant product was a clear yellow solution, containing approximately 50% solids, of which approximately 43% was stearyl dimethyl quaternized panthenol.
Rubine Dye uptake as a measure of substantivity.
Four tresses of Demeo Natural White Hair weighing approximately 0.5 grams each were immersed in 15 grams of the appropriate solution (i.e. positive control, negative control and test samples) for a period of not less than 5 minutes. Each tress was then rinsed five times with 100 ml of water at 120° F.
The tresses were then immersed in a solution of fast Rubine dye for 15 minutes, rinsed five times with 100 ml of water at 105° F., then air dried overnight on filter paper. Each tress was weighed directly into a tared beaker. The dye was stripped from the hair and the solution then brought to the volume with deionized water. The transmission of each sample was then read at 520 nm and its absorbance adjusted to the weight of the hair sample. The dye concentration was calculated from a standard calibration curve.

[2] = aqueous solutions; hydrolysis increases as pH varies from optimum; cited from earlier work
[3] = Compatibility with formulation ingredients; assay type: physicochemical; conditions: in finished cosmetic formulation
Experimental: Procedure: The water was weighed into a beaker. Each Phase A ingredient was then added to the water phase in the order listed and mixed thoroughly after the addition of each ingredient. The fragrance was dissolved in the alcohol and Phase B was added to Phase A and mixed until clear and uniform.
Procedure: Phase A was heated to 55° C. Phase B was added and mixed until uniform. Phase C ingredients were added in the order listed and mixed until uniform. When the batch cooled to 45° C., Phase E and Phase F were added and the batch was mixed until uniform. The pH was adjusted with Citric Acid. Phase H was added and the batch was mixed until uniform.
Procedure: The Siltech C-2145CG emulsion was predispersed in the Phase A water in a beaker. The Phase "B" ingredients were dissolved one at a time into the remainder of the water and mixed until clear. Phase "C" ingredients were mixed until clear and uniform. Phase "A" was added to Phase "B" with agitation. Then Phase "C" and "D" were added and the batch was mixed until uniform.
Procedure: Phase A was weighed into a beaker and was then mixed until clear and uniform. Phase B and then Phase C were added to Phase A while mixing. The batch was mixed until clear and uniform.
Procedure: Ucare Polymer JR was dispersed in the water. After the polymer was dispersed, the Methylparaben was added. Phase A was then heated to 60° C. […]

Compound	Rubine dye uptake [1]	uptake with respect to the positive control [1]	optimum pH for stability [2]	other results
CC(C)(CO)C(O)C(=O)NCCCO (stereo not shown) [Panthenol]	52.35 mg of dye/50 gm of hair	36.91%	–	–
CC(C)(CO)[C@@H](O)C(=O)NCCCO [d-Panthenol]	–	–	approximately 6	–
CCCCCCCCCCCCCCCCCC[N+](C)(C)CC(O)COCC(C)(C)C(O)C(=O)NCCCO (racemic) [stearyl dimethyl quaternized panthenol]	66.30 mg of dye/50 gm of hair	46.74%	–	greater uptake than the unquaternized panthenol, adjusted for concentration of active material ([1]; 50% solids aqueous solution vs panthenol 50% aqueous solution, adjusted for concentration of active material): ~31%; greater uptake than the unquaternized panthenol ([1]; versus a 50% panthenol solution, not adjusted for active material): ~27%; compatibility with other ingredients [3]: compatible with the anionic surfactants that make up the shampoo; also recorded: compatible with the cationic silicone emulsion (Siltech E-2145CG) and with the hair fixative polymer; also recorded: compatible with the hair fixative polymer and with the ethanol; also recorded: compatible with the other cationic ingredients in the formula; also recorded: compatible with all of the nonionic ingredients in the formula; also recorded: compatible with the anionic soaps and surfactants in the Neutrogena™ soap bar
CC(C)(CO)C(O)C(=O)NCCCO (racemic) [d,l-Panthenol]	–	–	approximately 6	–
CC(C)(COCC(O)C[N+](C)(C)C)C(O)C(=O)NCCCO (racemic) [trimethyl quaternized panthenol]	–	–	–	greater uptake than the unquaternized panthenol ([1]; versus panthenol solution of comparable concentration): ~7%

— patent US5136093A, “Quaternized panthenol compounds and their use” (priority 1991, dated 1992)
